The values below come from patent US20250136584A1, “Benzimidazole Or Azabenzimidazole Compound, Preparation Method Therefor And Use Thereof” (Chengdu Di'Ao Jiuhong Pharmaceutical Factory, priority 2022, published 2025).

One data set deals with GLP1R (Homo sapiens, UniProt P43220). Nature of the data set: Agonist activity on GLP1R/CRE-LUC HEK293 cells (luciferase reporter, ONE-Glo). The data set is classed as cell-based. To be noted: for EC50: GLP1R/CRE-LUC HEK293 cells, 6 hours incubation, chemiluminescence signal; for activity compared with comparative example compounds PF-06882961, DB02, DB03 and DB06: from Table 1, also much higher than DB04 and DB05. The protocol: Logarithmically growing GLP1R/CRE-LUC HEK293 cells (purchased from Nanjing Cobioer) were digested, the digested cells were re-suspended in a DMEM+10% FBS culture medium, and a cell density was adjusted to be 3.5*10^5/mL. The cell solution was added into a 96-well cell culture plate by 100 µL/well, and the plate was cultured overnight in an incubator (37° C., 5% CO2).
A compound was dissolved with DMSO to prepare a storage solution at an initial concentration of 10 mM, an initial concentration of the small molecular compound was 0.2 mM, and the compound was diluted by 3 times and 10 points were diluted, while the 11th point was DMSO. Another 96-well plate was taken, added with 95 μL of cell culture solution (DMEM+10% FBS) in each well, then added with 5 μL of to-be-tested samples at different concentrations in each well, mixed evenly, and then added with 11 μL of to-be-tested samples at different concentrations in each well of the cell culture plate, and each sample had two wells. The culture plate was incubated in an incubator for 6 hours (37° C., […]). The 96-well cell culture plate was taken out, added with 100 μL of ONE-Glo™ reagent in each well, and incubated at room temperature for 10 minutes, and a chemiluminescence signal value was measured with an enzyme-labeled instrument. Data were processed and analyzed by Microsoft Excel and Graphpad Prism6 to obtain an EC50 value of the compound.

The target of the next data set is T1, hERG potassium channel (Homo sapiens, UniProt Q12809).
T1 construct: host or cells: HEK-293 stably expressing hERG
Kind of data set: hERG test, patch clamp on HEK-293 cells stably expressing hERG potassium channel. The data set is classed as cell-based. To be noted: HEK-293 cell line stably expressing hERG, read-out: IC50 (μM) of inhibitory effect on hERG potassium channel current. The protocol:
Test object: influences of compounds on an hERG potassium channel current were tested by a full-automatic patch clamp method.
• (1) An HEK-293 cell line stably expressing an hERG potassium channel was adopted, and hERG potassium channel cells were purchased from Creacell Company. • (2) The HEK-293 cell line stably expressing the hERG potassium channel was cultured in a DMEM culture medium containing 10% fetal bovine serum and 0.8 mg/mL G418 at 37° C. under a carbon dioxide concentration of 5%. • (3) Cell passage: the old culture medium was removed, and the cells were washed once with PBS, then added with 1 mL of TrypLE™ Express solution, and incubated at 37° C. for about 0.5 minutes. When the cells were separated from a dish bottom, about 5 mL of complete culture medium preheated at 37° C. was added. A cell suspension was gently blown with a straw to separate the aggregated cells. The cell suspension was transferred to a sterile centrifuge tube and centrifuged at 1000 rpm for 5 minutes to collect the cells. In amplification or maintenance of culture, the cells were inoculated into a 6 cm cell culture dish, and the number of cells inoculated into each cell culture dish was 2.5×10^5 cells (final volume: 5 mL). In order to maintain an electrophysiological activity of cells, a cell density should not exceed 80%. • (4) In patch clamp detection, before the test, the cells were separated by TrypLE™ Express, and 4×10^3 cells were spread on a cover slip and cultured in a 24-well plate (final volume: 500 μL). After 18 hours, the test was carried out for detection. Data analysis:
A current after an effect of each drug concentration and a blank control current
were standardized first, and then an inhibition rate
corresponding to each drug concentration was calculated. A mean number and a standard error were calculated for each concentration, and a semi-inhibitory concentration of each compound was calculated by the following equation: […]
A dosage-dependent effect was nonlinearly fitted by the above equation, wherein C represented a concentration of a test sample, IC50 represented a semi-inhibitory concentration, and h represented a Hill coefficient. Curve fitting and IC50 calculation were completed by IGOR software.

The test system of a further data set is hGLP1R mice. Kind of data set: Glucose tolerance test in hGLP1R mice after single oral administration. The data set is classed as in vivo. Conditions: 1 mg/kg oral once; for onset of blood glucose reduction compared with comparative example compound DB03 / blood glucose reduction effect compared with comparative example compound DB03: FIG. 3 and FIG. 4; for blood glucose reduction effect compared with PF-06882961: glucose 2 g/kg i.p. 60 minutes later. As to the method:
Genetically engineered hGLP1R mice, male, purchased from Biocytogen Jiangsu Gene Biotechnology Co., Ltd., were fasted overnight before the glucose tolerance test (IPTGG), without water deprivation. A solvent or corresponding compound was orally administered once, a glucose solution (2 g/kg) was intraperitoneally injected 60 minutes after administration, and a blood glucose value before administration of glucose (equivalent to a blood glucose value of 0 minute) and blood glucose values 15 minutes, 30 minutes, 60 minutes and 120 minutes after administration of glucose were measured. The solvent was 5% DMSO+40% PEG400+55% physiological saline, and a dosage of the compound was 1 mg/kg (n=3).

The nature of data set [1]: Pharmacokinetic studies in SD rats. Type of data set: in vivo. To be noted: Sprague-Dawley (SD), rat, plasma.
Setting [2] is: blood glucose curves and AUC (0 to 120 minutes).

Each structure is given as a SMILES string.

GLP1R, sequence (P43220 24-463): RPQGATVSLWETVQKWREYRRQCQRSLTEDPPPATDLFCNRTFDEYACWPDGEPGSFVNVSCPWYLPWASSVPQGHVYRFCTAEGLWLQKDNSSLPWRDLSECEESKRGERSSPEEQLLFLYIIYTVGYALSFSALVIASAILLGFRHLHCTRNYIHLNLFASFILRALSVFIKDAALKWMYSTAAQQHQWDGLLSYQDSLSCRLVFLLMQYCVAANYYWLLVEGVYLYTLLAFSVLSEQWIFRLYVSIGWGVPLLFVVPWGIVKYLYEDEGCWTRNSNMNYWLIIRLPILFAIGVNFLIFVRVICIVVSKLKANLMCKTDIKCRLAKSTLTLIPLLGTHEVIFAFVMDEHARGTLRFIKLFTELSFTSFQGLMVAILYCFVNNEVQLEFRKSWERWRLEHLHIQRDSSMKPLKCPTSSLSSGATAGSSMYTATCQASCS
T1 sequence (Q12809 whole entry): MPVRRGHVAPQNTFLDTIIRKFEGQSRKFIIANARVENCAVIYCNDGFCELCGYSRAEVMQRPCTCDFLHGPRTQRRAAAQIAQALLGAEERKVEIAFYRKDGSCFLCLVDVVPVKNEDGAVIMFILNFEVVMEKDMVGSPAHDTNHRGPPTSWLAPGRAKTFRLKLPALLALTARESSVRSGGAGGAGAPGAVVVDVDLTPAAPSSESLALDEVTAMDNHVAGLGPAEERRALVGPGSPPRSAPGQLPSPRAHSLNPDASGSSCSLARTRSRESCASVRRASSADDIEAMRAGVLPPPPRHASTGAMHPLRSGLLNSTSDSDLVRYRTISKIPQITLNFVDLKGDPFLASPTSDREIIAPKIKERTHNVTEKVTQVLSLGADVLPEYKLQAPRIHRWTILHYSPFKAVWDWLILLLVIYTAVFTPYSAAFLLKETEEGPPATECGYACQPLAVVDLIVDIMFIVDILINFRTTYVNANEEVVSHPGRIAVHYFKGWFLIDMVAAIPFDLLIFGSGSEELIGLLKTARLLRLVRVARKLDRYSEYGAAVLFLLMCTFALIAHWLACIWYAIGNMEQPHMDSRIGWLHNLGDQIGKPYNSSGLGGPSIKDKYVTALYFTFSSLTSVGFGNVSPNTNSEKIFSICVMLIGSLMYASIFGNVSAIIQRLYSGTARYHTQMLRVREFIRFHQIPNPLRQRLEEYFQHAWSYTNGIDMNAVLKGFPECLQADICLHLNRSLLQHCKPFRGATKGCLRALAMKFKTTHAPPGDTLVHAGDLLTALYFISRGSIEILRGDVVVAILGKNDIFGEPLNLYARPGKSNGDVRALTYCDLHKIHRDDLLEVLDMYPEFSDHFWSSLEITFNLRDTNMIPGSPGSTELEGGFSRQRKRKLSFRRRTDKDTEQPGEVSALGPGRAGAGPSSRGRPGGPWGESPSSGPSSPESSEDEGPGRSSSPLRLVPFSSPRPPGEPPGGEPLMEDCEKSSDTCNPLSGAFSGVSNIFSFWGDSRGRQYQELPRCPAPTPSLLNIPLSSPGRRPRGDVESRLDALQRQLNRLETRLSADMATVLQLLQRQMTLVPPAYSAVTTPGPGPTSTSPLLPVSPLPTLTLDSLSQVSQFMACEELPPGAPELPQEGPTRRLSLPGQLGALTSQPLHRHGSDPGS

Consider `O=C(O)c1ccc2nc(CC3CC=C(c4cccc(OCc5ccc(Cl)c6ccoc56)n4)CC3)n(C[C@@H]3CCO3)c2c1` (stereo partly shown) [Compound 7], for which the EC50 on GLP1R was 0.0209 µM. For the same compound, the IC50 at hERG potassium channel is greater than 30 µM.
Take `O=C(O)c1ccc2nc(Cc3ccc(-c4cccc(OCc5ccc(Cl)c6ccoc56)n4)cc3F)n(C[C@@H]3CCO3)c2c1` [Compound 17]: the “onset of blood glucose reduction compared with comparative example compound DB05” value with hGLP1R mice (FIG. 1 and FIG. 2) is “took effect more quickly”. The “onset of blood glucose reduction compared with comparative example compound DB03” value with hGLP1R mice is “took effect more quickly”. In the data set with hGLP1R mice (setting [2]), the “blood glucose reduction effect compared with PF-06882961” value is listed as “significantly better” and the “blood glucose reduction effect compared with comparative example compound DB03” value is listed as “absolutely better”. Also, the “blood glucose reduction effect compared with comparative example compound DB05” value in the data set on hGLP1R mice (blood glucose curves and AUC (0 to 120 minutes), FIG. 1 and FIG. 2) is recorded as “significantly better”. Moreover, the IC50 at hERG potassium channel is greater than 30 µM.
Take `O=C(O)c1ccc2nc(Cc3ccc(-c4cccc(OCc5ccc(Cl)c6cc(F)oc56)n4)cc3F)n(C[C@@H]3CCO3)c2c1` [Compound 21]: on GLP1R, the EC50 is 0.00096 µM; the “activity compared with comparative example compounds PF-06882961, DB02, DB03 and DB06” value is “higher”. In addition, in the data set on hGLP1R mice (setting [2]), the “blood glucose reduction effect compared with PF-06882961” value is reported as “significantly better”. Moreover, the 50% inhibitory concentration (IC50) at hERG potassium channel was greater than 30 µM. Further, the half-life in data set [1] lay within 6 to 10 h.
As to `O=C(O)c1ccc2nc(Cc3ccc(-c4cccc(OCc5ccc(F)c6ccoc56)n4)cc3F)n(C[C@@H]3CCO3)c2c1` [Compound 87], on hERG potassium channel, the IC50 is greater than 30 µM.
On to `O=C(O)c1ccc2nc(Cc3ccc(-c4ccc(F)c(OCc5ccc(Cl)c6ccoc56)n4)cc3F)n(C[C@@H]3CCO3)c2c1` [Compound 93], for which, on GLP1R, the midpoint of the response, the EC50, lay at 0.00289 µM; the “activity compared with comparative example compounds PF-06882961, DB02, DB03 and DB06” value was “higher”. Besides, the “onset of blood glucose reduction compared with comparative example compound DB03” value in the data set with hGLP1R mice is recorded as “took effect more quickly”. In the data set on hGLP1R mice (setting [2]), the “blood glucose reduction effect compared with PF-06882961” value is “significantly better” and the “blood glucose reduction effect compared with comparative example compound DB03” value is recorded as “absolutely better”. At hERG potassium channel, the IC50 is greater than 30 µM. Besides, the half-life in data set [1] was in the range of 6 to 10 h.
In the case of `O=C(O)c1ccc2nc(Cc3ccc(-c4ccc(F)c(OCc5ccc(Cl)c6cc(F)oc56)n4)cc3F)n(C[C@@H]3CCO3)c2c1` [Compound 94], at GLP1R, the midpoint of the response, the EC50, lay at 0.00089 µM; the “activity compared with comparative example compounds PF-06882961, DB02, DB03 and DB06” value is reported as “higher”. Also, the “blood glucose reduction effect compared with PF-06882961” value in the data set with hGLP1R mice (setting [2]) was “significantly better”. In addition, the IC50 on hERG potassium channel is greater than 30 µM. This compound also returned a half-life in data set [1] of 6 to 10 h.
`O=C(O)c1ccc2nc(Cc3ccc(-c4cccc(OCc5ccc(Cl)c6cc(Cl)oc56)n4)cc3F)n(C[C@@H]3CCO3)c2c1` [Compound 99]: the “blood glucose reduction effect compared with PF-06882961” value with hGLP1R mice (setting [2]) is given as “significantly better”. In addition, at hERG potassium channel, the IC50 was greater than 30 µM. Further, in data set [1], the half-life was in the range of 6 to 10 h.
On to `O=C(O)c1ccc2nc(Cc3ccc(-c4ccc(F)c(OCc5ccc(Cl)c6cc(Cl)oc56)n4)cc3F)n(C[C@@H]3CCO3)c2c1` [Compound 100], for which, on GLP1R, a half-maximal effect (EC50) was put at 0.00202 µM; the “activity compared with comparative example compounds PF-06882961, DB02, DB03 and DB06” value was “higher”. For the same compound, the “onset of blood glucose reduction compared with comparative example compound DB03” value in the data set on hGLP1R mice is recorded as “took effect more quickly”. In the data set with hGLP1R mice (setting [2]), the “blood glucose reduction effect compared with PF-06882961” value is “significantly better” and the “blood glucose reduction effect compared with comparative example compound DB03” value is listed as “absolutely better”. The IC50 at hERG potassium channel was greater than 30 µM. The compound further returned a half-life in data set [1] of 6 to 10 h.
For `O=C(O)c1ccc2nc(Cc3ccc(-c4ccc(F)c(OCc5ccc(F)c6cc(Cl)oc56)n4)cc3F)n(C[C@@H]3CCO3)c2c1` [Compound 104], at GLP1R, the EC50 worked out at 0.00176 µM; the “activity compared with comparative example compounds PF-06882961, DB02, DB03 and DB06” value is on record as “higher”. In addition, the IC50 on hERG potassium channel is greater than 30 µM.
With `O=C(O)c1ccc2nc(Cc3ccc(-c4cccc(OCc5ccc(Cl)cc5F)n4)cc3F)n(C[C@@H]3CCO3)c2c1` [DB03, reference compound], the IC50 on hERG potassium channel is greater than 10 µM. For the same compound, the half-life in data set [1] was 2.94 h.
For `N#Cc1ccc(COc2cccc(C3CCN(Cc4nc5ccc(C(=O)O)cc5n4C[C@@H]4CCO4)CC3)n2)c(F)c1` [PF-06882961, reference compound] the same measures were 9.35 µM and 3.13 h.
